According to patent US9233982B2, “Spiro tetrahydro—benzothiophen derivatives useful for the treatment neurodegenerative diseases” (Ares Trading S.A., priority 2012, dated 2016):
Counter-ions that a name gives are not always drawn.

Assays:
BACE-1 [1] = biological target: T1, BACE-1 (Homo sapiens, UniProt P56817); experiment: LanthaScreen BACE1 biochemical assay (TR-FRET)
Protocol: Biochemical Assay to Assess Compounds for Inhibition of BACE-1
The LanthaScreen™ BACE1 assay kit from Invitrogen (Catalogue number PV4748) was used as the primary assay in the screening cascade.
Briefly, the test compound was incubated with the enzyme and substrate for 1 hour at room temperature in a reaction volume of 15 μl and then 5 nM terbium labelled anti-biotin antibody was added to stop the reaction and the solution incubated for a further 1 hour at room temperature. The microplate was read on an Envision plate reader fitted with a photometric 340 nm excitation filter and the amount of substrate that had been cleaved was represented by the TR-FRET ratio, calculated by dividing the Fluorescein emission signal (520 nm) by the Terbium emission signal (495 nm).

BACE-1 [2] = biological target: T1, BACE-1; experiment: HTRF cell based assay, Aβ1-40 peptide secreted by recombinant HEK293 cells; set-up: endogenous in cells; host or cells: recombinant HEK293 cells engineered to over-produce APP; conditions: for EC50: Aβ1-40 secretion, recombinant HEK293 cells producing APP, overnight treatment, read-out: Cellular assay EC50 Ranges
Protocol: The cell based assay used to support the program utilized HTRF assay reagents from Cisbio (Catalogue number 62B40PEB) to quantify the amount of Aβ1-40 peptide secreted by recombinant HEK293 cells. The cells were engineered to produce high quantities of APP, the precursor for Aβ1-40 peptide, under hygromycin selection pressure. Briefly, cells were plated into 384-well microplates and allowed to settle for 2 hours prior to compound addition. Following overnight treatment with compound, the media containing secreted peptide was transferred into a low volume assay plate for quantification with HTRF immunoassay reagents. Adhering to the manufacturers protocol for quantification, a TR-FRET signal is obtained in the presence of the Aβ1-40 peptide following addition of a cryptate conjugated antibody and an XL665 conjugated antibody, each raised to a different epitope of the Aβ1-40 peptide. A low FRET signal is obtained when cells are treated with compounds that inhibit APP cleavage and peptide secretion.

T1 sequence (P56817 46-501): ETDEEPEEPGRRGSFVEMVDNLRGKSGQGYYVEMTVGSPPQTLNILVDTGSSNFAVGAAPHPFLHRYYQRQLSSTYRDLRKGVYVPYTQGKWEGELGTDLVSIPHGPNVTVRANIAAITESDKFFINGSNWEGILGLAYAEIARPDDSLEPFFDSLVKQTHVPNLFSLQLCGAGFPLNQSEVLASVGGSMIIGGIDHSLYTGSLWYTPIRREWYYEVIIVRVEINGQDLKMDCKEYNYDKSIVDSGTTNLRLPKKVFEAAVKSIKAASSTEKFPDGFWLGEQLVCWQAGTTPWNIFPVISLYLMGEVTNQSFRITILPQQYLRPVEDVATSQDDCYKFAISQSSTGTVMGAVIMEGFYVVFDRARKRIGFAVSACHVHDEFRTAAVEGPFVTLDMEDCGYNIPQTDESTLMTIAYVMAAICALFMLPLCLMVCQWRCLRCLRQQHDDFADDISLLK

SMILES	IC50 (BACE-1 [1]) [µM]	EC50 (BACE-1 [2]) [µM]	IC50 (BACE-1 [2]; reference inhibitor, inhibition of Aβ1-40 peptide secretion, 30,000 cells per well) [µM]
NC1=NC2(CCS1)CC(c1ccccc1)Cc1sc(-c3cccc(Br)c3)cc12 (racemic) [Example 43]	5 to 65	5 to 50	–
COc1ccc(-c2cccc(-c3cc4c(s3)CC(c3ccccc3)CC43CCSC(N)=N3)c2)cc1 (racemic) [Example 44]	1 to 5	5 to 50	–
COCC1Cc2sc(-c3cccc(C#N)c3)cc2C2(CCSC(N)=N2)C1 (racemic) [Example 45, 3-(2′-amino-6-(methoxymethyl)-5′,6,6′,7-tetrahydro-5H-spiro[benzo[b]thiophene-4,4′-[1,3]thiazine]-2-yl)benzonitrile, Hydrochloride Salt]	5 to 65	1 to 5	–
N#Cc1cccc(-c2cc3c(s2)CCC(Cc2ccccc2)C32CCSC(N)=N2)c1 (racemic) [Example 47, 3-(2′-amino-5-benzyl-5′,6,6′,7-tetrahydro-5H-spiro[benzo[b]thiophene-4,4′-[1,3]thiazine]-2-yl)benzonitrile]	5 to 65	1 to 5	–
COc1ccc(CC2CCc3sc(-c4cccc(C#N)c4)cc3C23CCSC(N)=N3)cc1 (racemic) [Example 48]	1 to 5	5 to 50	–
CN1C(=O)[C@]2(CCCc3sc(-c4cccc(C#N)c4)cc32)N=C1N (single isomer, unassigned) [Example 50]	5 to 65	1 to 5	–
CN1C(=O)[C@@]2(CCCc3sc(-c4cccc(C#N)c4)cc32)N=C1N (single isomer, unassigned) [Example 51]	< 1	≤ 1	–
NC1=NC2(CCCc3sc(-c4ccc5c(c4)CCO5)cc32)CCS1 (centres unmarked) [Example 6]	5 to 65	5 to 50	–
NC1=NC2(CCCc3sc(-c4cncnc4)cc32)CCS1 (centres unmarked) [Example 7]	5 to 65	5 to 50	–
NC1=NC2(CCCc3sc(-c4ccc5c(c4)OCO5)cc32)CCS1 (centres unmarked) [Example 8]	5 to 65	5 to 50	–
COc1ccc(C#N)cc1-c1cc2c(s1)CCCC21CCSC(N)=N1 (centres unmarked) [Example 10]	1 to 5	≤ 1	–
COc1cc(C#N)cc(-c2cc3c(s2)CCCC32CCSC(N)=N2)c1F (centres unmarked) [Example 11]	5 to 65	1 to 5	–
N#Cc1cc(F)cc(-c2cc3c(s2)CCCC32CCSC(N)=N2)c1 (centres unmarked) [Example 12]	5 to 65	1 to 5	–
N#Cc1ccc(F)c(-c2cc3c(s2)CCCC32CCSC(N)=N2)c1 (centres unmarked) [Example 15]	1 to 5	≤ 1	–
N#Cc1ccc(Cl)c(-c2cc3c(s2)CCCC32CCSC(N)=N2)c1 (centres unmarked) [Example 16]	1 to 5	≤ 1	–
COc1cc(C#N)cc(-c2cc3c(s2)CCCC32CCSC(N)=N2)c1 (centres unmarked) [Example 17]	1 to 5	1 to 5	–
COc1ncc(-c2cc3c(s2)CCCC32CCSC(N)=N2)cc1C#N (centres unmarked) [Example 18]	5 to 65	1 to 5	–
N#Cc1cncc(-c2cc3c(s2)CCCC32CCSC(N)=N2)c1 (centres unmarked) [Example 19]	5 to 65	1 to 5	–
NC1=NC2(CCCc3sc(-c4cccc(Oc5ccccc5)c4)cc32)CCS1 (centres unmarked) [Example 26]	1 to 5	5 to 50	–
NC1=NC2(CCCc3sc(-c4ccc(-c5ccccc5)cc4)cc32)CCS1 (centres unmarked) [Example 29]	1 to 5	5 to 50	–
NC1=NC2(CCCc3sc(-c4cccc(OCc5ccccc5)c4)cc32)CCS1 (centres unmarked) [Example 30]	1 to 5	5 to 50	–
N#Cc1cccc(-c2cc3c(s2)CCCC32CCSC(N)=N2)n1 (centres unmarked) [Example 31]	1 to 5	1 to 5	–
N#Cc1cc(-c2cc3c(s2)CCCC32CCSC(N)=N2)cc(C(F)(F)F)c1 (centres unmarked) [Example 32]	1 to 5	5 to 50	–
COc1ccc(-c2cccc(-c3cc4c(s3)CCCC43CCSC(N)=N3)c2)cc1 (centres unmarked) [Example 33]	1 to 5	5 to 50	–
N#Cc1cc(Cl)cc(-c2cc3c(s2)CCCC32CCSC(N)=N2)c1 (centres unmarked) [Example 34]	1 to 5	1 to 5	–
Cc1cc(C#N)cc(-c2cc3c(s2)CCCC32CCSC(N)=N2)c1 (centres unmarked) [Example 35]	1 to 5	1 to 5	–
COc1cccc(-c2cccc(-c3cc4c(s3)CCCC43CCSC(N)=N3)c2)c1 (centres unmarked) [Example 38]	1 to 5	5 to 50	–
NC1=NC2(CCCc3sc(NC(=O)c4ccc(Br)cn4)cc32)CCS1 (centres unmarked) [Example 40]	5 to 65	5 to 50	–
C[C@H](NC(=O)Cc1cc(F)cc(F)c1)C(=O)N[C@@H]1C(=O)N(C)c2ccccc2-c2ccccc21 [reference compound]	–	–	0.0002

Other lines, results leading:

IC50 (BACE-1 [1]) [µM]	EC50 (BACE-1 [2]) [µM]	IC50 (BACE-1 [2]; reference inhibitor, inhibition of Aβ1-40 peptide secretion, 30,000 cells per well) [µM]	SMILES
< 1	≤ 1	–	N#Cc1cccc(-c2cc3c(s2)CCCC32CCSC(N)=N2)c1 (stereo in doubt) [Example 2, (R)-3-(2′-amino-5′,6,6′,7-tetrahydro-5H-spiro[benzo[b]thiophene-4,4′-[1,3]thiazine]-2-yl)benzonitrile]
1 to 5	≤ 1	–	N#Cc1cccc(-c2cc3c(s2)CCCC32CCSC(N)=N2)c1 (centres unmarked) [Example 1, 3-(2′-amino-5′,6,6′,7-tetrahydro-5H-spiro[benzo[b]thiophene-4,4′-[1,3]thiazine]-2-yl)benzonitrile, Formate Salt]
5 to 65	5 to 50	–	NC1=NC2(CCCc3sc(-c4ccc(F)cc4)cc32)CCS1 (centres unmarked) [Example 3]
5 to 65	5 to 50	–	NC1=NC2(CCCc3sc(-c4cccnc4)cc32)CCS1 (centres unmarked) [Example 4]
5 to 65	5 to 50	–	COc1ccc(-c2cc3c(s2)CCCC32CCSC(N)=N2)cn1 (centres unmarked) [Example 5]
5 to 65	1 to 5	–	CS(=O)(=O)c1cccc(-c2cc3c(s2)CCCC32CCSC(N)=N2)c1 (centres unmarked) [Example 9]
5 to 65	5 to 50	–	COC(=O)c1cccc(-c2cc3c(s2)CCCC32CCSC(N)=N2)c1 (centres unmarked) [Example 13]
1 to 5	1 to 5	–	N#Cc1cc(-c2cc3c(s2)CCCC32CCSC(N)=N2)ccc1F (centres unmarked) [Example 14]
5 to 65	1 to 5	–	N#Cc1cc(-c2cc3c(s2)CCCC32CCSC(N)=N2)ccn1 (centres unmarked) [Example 20]
1 to 5	5 to 50	–	NC1=NC2(CCCc3sc(-c4cccc(-c5ccccc5)c4)cc32)CCS1 (centres unmarked) [Example 21]
5 to 65	1 to 5	–	COc1ccc(-c2cc3c(s2)CCCC32CCSC(N)=N2)cc1C#N (centres unmarked) [Example 22]
5 to 65	1 to 5	–	COCc1cccc(-c2cc3c(s2)CCCC32CCSC(N)=N2)c1 (centres unmarked) [Example 23]
1 to 5	5 to 50	–	NC1=NC2(CCCc3sc(-c4cccc(OC(F)(F)F)c4)cc32)CCS1 (centres unmarked) [Example 24]
1 to 5	5 to 50	–	NC1=NC2(CCCc3sc(-c4cccc(C(F)(F)F)c4)cc32)CCS1 (centres unmarked) [Example 25]
1 to 5	5 to 50	–	CC(C)c1cccc(-c2cc3c(s2)CCCC32CCSC(N)=N2)c1 (centres unmarked) [Example 27]
1 to 5	5 to 50	–	NC1=NC2(CCCc3sc(-c4cccc(Cl)c4)cc32)CCS1 (centres unmarked) [Example 28]
5 to 65	5 to 50	–	NC1=NC2(CCCc3sc(-c4cccc(-c5ccccn5)c4)cc32)CCS1 (centres unmarked) [Example 36]
5 to 65	5 to 50	–	CC(C)(C)c1cccc(-c2cc3c(s2)CCCC32CCSC(N)=N2)c1 (centres unmarked) [Example 37]
5 to 65	5 to 50	–	NC1=NC2(CCCc3sc(-c4cccc(CC(F)(F)F)c4)cc32)CCS1 (centres unmarked) [Example 39]
